Here are results for one molecule from publication PMC5513037, “Examining the influence of specificity ligands and ATP-competitive ligands on the overall effectiveness of bivalent kinase inhibitors” (Proteome Science, 2017).

Structures are written as SMILES.

For this assay, the target named is T1, NEK9 (Homo sapiens, UniProt Q8TD19).
T1 construct: endogenous in cells; host or cells: K562
T1 sequence (Q8TD19 1-979): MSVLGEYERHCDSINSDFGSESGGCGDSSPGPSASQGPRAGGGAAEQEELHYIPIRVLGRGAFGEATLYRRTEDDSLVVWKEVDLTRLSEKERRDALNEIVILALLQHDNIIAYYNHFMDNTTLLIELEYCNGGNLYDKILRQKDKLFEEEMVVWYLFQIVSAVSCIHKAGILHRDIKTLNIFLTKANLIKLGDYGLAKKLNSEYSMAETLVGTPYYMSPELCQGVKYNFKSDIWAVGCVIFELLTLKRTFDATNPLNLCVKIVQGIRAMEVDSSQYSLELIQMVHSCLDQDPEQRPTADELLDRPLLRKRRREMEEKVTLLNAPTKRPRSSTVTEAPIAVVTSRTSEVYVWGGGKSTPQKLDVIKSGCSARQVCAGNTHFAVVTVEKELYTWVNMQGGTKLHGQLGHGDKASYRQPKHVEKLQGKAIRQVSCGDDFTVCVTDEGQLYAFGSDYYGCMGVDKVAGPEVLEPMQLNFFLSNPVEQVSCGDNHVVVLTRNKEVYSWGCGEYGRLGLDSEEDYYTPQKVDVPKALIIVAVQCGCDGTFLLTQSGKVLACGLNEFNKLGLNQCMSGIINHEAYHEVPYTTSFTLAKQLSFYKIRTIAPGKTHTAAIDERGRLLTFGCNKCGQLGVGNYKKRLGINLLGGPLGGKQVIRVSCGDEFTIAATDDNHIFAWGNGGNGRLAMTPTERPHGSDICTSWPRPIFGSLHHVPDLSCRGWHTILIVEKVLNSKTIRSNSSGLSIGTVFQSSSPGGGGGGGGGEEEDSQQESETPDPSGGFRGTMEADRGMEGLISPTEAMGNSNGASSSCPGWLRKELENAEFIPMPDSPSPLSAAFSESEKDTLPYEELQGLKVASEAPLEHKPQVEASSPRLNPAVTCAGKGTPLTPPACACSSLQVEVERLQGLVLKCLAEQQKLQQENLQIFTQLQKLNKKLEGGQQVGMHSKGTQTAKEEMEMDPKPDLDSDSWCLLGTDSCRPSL
The assay is described as follows: KAM-matrix competition in K562 lysate. It is filed as binding. The method, then: For synthesis of KAM-derivatized resin, packed NHS-activated sepharose 4 fast flow resin (volume = 2 mL; GE Healthcare) was washed with anhydrous DMSO (3 × 10 mL). To the washed NHS-activated sepharose resin was added 0.5 mM KAM in anhydrous DMSO (8 mL; 2 μmol compound/mL of resin), followed by the addition of triethylamine (30 μL). The reaction mixture was vortexed to mix and pelleted by centrifugation (100 x g, 2 min). An aliquot of the supernatant (50 μL) was saved for LC/MS analysis. The reaction mixture was allowed incubate overnight at room temp with end-over-end rotating agitation. On the following day, the reaction mixture was pelleted by centrifugation (100 x g, 2 min). An aliquot of the supernatant (50 μL) was saved for LC/MS analysis. […] 2-(2-Aminoethoxy)ethanol (100 μL; Sigma-Aldrich) was added to the reaction mixture, vortexed, and incubate overnight at room temp with end-over-end agitation. The KAM-derivatized resin was then washed with anhydrous DMSO (3 × 10 mL) and 95% EtOH (3 × 10 mL).
Data were visualized for further analysis using Spotfire DXP.

In the case of `N#CCc1ccc(Nc2nc(NCCCN)cc(Nc3cc(C4CC4)[nH]n3)n2)cc1` [KAM], the “median Log10 fold change” value was 0.04943 (0.001 uM KAM); -0.06045 (0.01 uM KAM); -0.3899 (0.1 uM KAM); -0.6054 (1 uM KAM); -0.6016 (10 uM KAM). Where the note is “NEK9, KAM-based affinity matrix, K562 lysates, read-out: RB50 (the source's name)”, the IC50 stood at 86 nM.
